From BindingDB's records for doi:10.1021/jm00079a024 (Roche Products, 1992)

Target: Protein kinase C beta type (Rattus norvegicus, UniProt P68403)
Assay: PKC assay
Details: not given

Protein kinase C beta type, sequence (P68403 whole entry): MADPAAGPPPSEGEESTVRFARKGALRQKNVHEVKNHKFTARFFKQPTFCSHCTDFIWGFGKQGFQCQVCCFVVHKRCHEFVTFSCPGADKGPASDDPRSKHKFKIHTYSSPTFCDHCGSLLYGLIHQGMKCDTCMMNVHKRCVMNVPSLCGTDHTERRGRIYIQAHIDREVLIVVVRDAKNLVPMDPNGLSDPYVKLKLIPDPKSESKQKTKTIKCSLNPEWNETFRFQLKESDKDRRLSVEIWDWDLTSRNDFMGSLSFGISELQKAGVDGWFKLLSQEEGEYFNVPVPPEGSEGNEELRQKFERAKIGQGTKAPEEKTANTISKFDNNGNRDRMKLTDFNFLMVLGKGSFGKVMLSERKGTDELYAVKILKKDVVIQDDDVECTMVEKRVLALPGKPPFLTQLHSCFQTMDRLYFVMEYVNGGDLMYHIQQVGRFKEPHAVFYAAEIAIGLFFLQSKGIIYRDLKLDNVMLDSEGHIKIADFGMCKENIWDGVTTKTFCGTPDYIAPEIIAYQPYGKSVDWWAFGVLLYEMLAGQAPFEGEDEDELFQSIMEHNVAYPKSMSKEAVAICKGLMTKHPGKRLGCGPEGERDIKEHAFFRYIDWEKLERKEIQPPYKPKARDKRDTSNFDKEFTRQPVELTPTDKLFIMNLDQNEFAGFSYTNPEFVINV

IC50 [µM] | Compound
> 50 | Cn1cc(C2=C(c3cn(C)c4ccc(C(=O)O)cc34)C(=O)NC2=O)c2ccccc21 [1-methyl-3-[4-(1-methyl-1H-indol-3-yl)-2,5-dioxo-2,5-dihydro-1H-pyrrol-3-yl]-1H-indole-5-carboxylic acid]
> 100 | Cn1cc(C2=C(c3cccc(Oc4ccccc4)c3)C(=O)NC2=O)c2ccccc21 [3-(1-methyl-1H-indol-3-yl)-4-(3-phenoxyphenyl)-2,5-dihydro-1H-pyrrole-2,5-dione]
> 50 | CSc1ccc(C2=C(c3cn(C)c4ccccc34)C(=O)NC2=O)cc1 [3-(1-methyl-1H-indol-3-yl)-4-[4-(methylsulfanyl)phenyl]-2,5-dihydro-1H-pyrrole-2,5-dione]
> 100 | Cn1cc(C2=C(c3ccc(Cl)cc3)C(=O)NC2=O)c2ccccc21 [3-(4-chlorophenyl)-4-(1-methyl-1H-indol-3-yl)-2,5-dihydro-1H-pyrrole-2,5-dione]
> 100 | Cn1cc(C2=C(c3ccc(S(C)(=O)=O)cc3)C(=O)NC2=O)c2ccccc21 [3-(4-methanesulfonylphenyl)-4-(1-methyl-1H-indol-3-yl)-2,5-dihydro-1H-pyrrole-2,5-dione]

Same assay, conditions: pH 7.5; 30 °C

IC50 [µM] | Compound
> 100 | CN1C(=O)C(c2c[nH]c3ccccc23)=C(c2c[nH]c3ccccc23)C1=O
> 100 | O=C1OC(=O)C(c2c[nH]c3ccccc23)=C1c1c[nH]c2ccccc12 [3,4-bis(1H-indol-3-yl)-2,5-dihydrofuran-2,5-dione]
> 100 | Cn1cc(C2=C(c3cc4ccccc4n3C)C(=O)NC2=O)c2ccccc21 [3-(1-methyl-1H-indol-2-yl)-4-(1-methyl-1H-indol-3-yl)-2,5-dihydro-1H-pyrrole-2,5-dione]
> 100 | O=C1NC(=O)[C@@H](c2c[nH]c3ccccc23)[C@@H]1c1c[nH]c2ccccc12 [(3R,4R)-3,4-bis(1H-indol-3-yl)pyrrolidine-2,5-dione]
> 100 | O=C1NC(=O)[C@@H](c2c[nH]c3ccccc23)[C@H]1c1c[nH]c2ccccc12 [(3R,4S)-3,4-bis(1H-indol-3-yl)pyrrolidine-2,5-dione]

Target: cAMP-dependent protein kinase catalytic subunit alpha (Bos taurus, UniProt P00517)
Assay: PKA assay
Details: not given

IC50 [µM] | Compound
> 100 | Cn1cc(C2=C(c3csc4ccccc34)C(=O)NC2=O)c2ccccc21 [3-(1-benzothiophen-3-yl)-4-(1-methyl-1H-indol-3-yl)-2,5-dihydro-1H-pyrrole-2,5-dione]
> 100 | Cn1cc(C2=C(c3cn(C)c4cccc([N+](=O)[O-])c34)C(=O)NC2=O)c2ccccc21 [3-(1-methyl-1H-indol-3-yl)-4-(1-methyl-4-nitro-1H-indol-3-yl)-2,5-dihydro-1H-pyrrole-2,5-dione]
> 100 | Cc1cccc(C2=C(c3cn(C)c4ccccc34)C(=O)NC2=O)c1 [3-(1-methyl-1H-indol-3-yl)-4-(3-methylphenyl)-2,5-dihydro-1H-pyrrole-2,5-dione]
> 100 | Cn1cc(C2=C(c3ccccc3)C(=O)NC2=O)c2ccccc21 [3-(1-methyl-1H-indol-3-yl)-4-phenyl-2,5-dihydro-1H-pyrrole-2,5-dione]
> 100 | Cn1cc(C2=C(c3cc(Cl)cc(Cl)c3)C(=O)NC2=O)c2ccccc21 [3-(3,5-dichlorophenyl)-4-(1-methyl-1H-indol-3-yl)-2,5-dihydro-1H-pyrrole-2,5-dione]
> 100 | Cn1cc(C2=C(c3cccc(N)c3)C(=O)NC2=O)c2ccccc21 [3-(3-aminophenyl)-4-(1-methyl-1H-indol-3-yl)-2,5-dihydro-1H-pyrrole-2,5-dione]
> 100 | Cn1cc(C2=C(c3cccc(Cl)c3)C(=O)NC2=O)c2ccccc21 [3-(3-chlorophenyl)-4-(1-methyl-1H-indol-3-yl)-2,5-dihydro-1H-pyrrole-2,5-dione]

Same assay, conditions: pH 8.5; 37 °C

IC50 [µM] | Compound
> 100 | Cn1cc(C2=C(c3cn(Cc4ccccc4)c4ccccc34)C(=O)NC2=O)c2ccccc21 [3-(1-benzyl-1H-indol-3-yl)-4-(1-methyl-1H-indol-3-yl)-2,5-dihydro-1H-pyrrole-2,5-dione]
